Literature values, collected in patent US8167920B2, “Intranasal delivery of compounds that reduce intrancranial pressure” (Codman & Shurtleff, Inc., priority 2006, dated 2012).

Legend:
[1] = tested on: mesenteries (lymphatic pump); details: 15 minutes superfusion of 30 uM into the mesenteries
[2] = tested on: rat mesenteric lymphatics

Row | Compound | increase in lymphatic pump flow index [1] [%] | inhibition of the active lymph pump [2]
1 | COC(=O)[C@@H](N)CCCNC(=N)N[N+](=O)[O-] [L-NAME] | ~40 | –
2 | OO [hydrogen peroxide] | – | intense inhibition
